Results from ChEMBL document CHEMBL2029226, “Molecular Insights into Human Monoamine Oxidase B Inhibition by the Glitazone Anti-Diabetes Drugs” (ACS Med Chem Lett, 2012).
The source made the active and inactive calls. The rule behind the calls is not given here.

Experiments:
[1] = target: Lysine-specific histone demethylase 1A (Homo sapiens) (UniProt O60341); experiment: Inhibition of human histone demethylase LSD1 up to 100 uM
[2] = target: T1, Amine oxidase [flavin-containing] A (Rattus norvegicus, UniProt P21396); experiment: Inhibition of rat MAOA expressed in Pichia pastoris at 100 uM
T1 sequence (P21396 whole entry): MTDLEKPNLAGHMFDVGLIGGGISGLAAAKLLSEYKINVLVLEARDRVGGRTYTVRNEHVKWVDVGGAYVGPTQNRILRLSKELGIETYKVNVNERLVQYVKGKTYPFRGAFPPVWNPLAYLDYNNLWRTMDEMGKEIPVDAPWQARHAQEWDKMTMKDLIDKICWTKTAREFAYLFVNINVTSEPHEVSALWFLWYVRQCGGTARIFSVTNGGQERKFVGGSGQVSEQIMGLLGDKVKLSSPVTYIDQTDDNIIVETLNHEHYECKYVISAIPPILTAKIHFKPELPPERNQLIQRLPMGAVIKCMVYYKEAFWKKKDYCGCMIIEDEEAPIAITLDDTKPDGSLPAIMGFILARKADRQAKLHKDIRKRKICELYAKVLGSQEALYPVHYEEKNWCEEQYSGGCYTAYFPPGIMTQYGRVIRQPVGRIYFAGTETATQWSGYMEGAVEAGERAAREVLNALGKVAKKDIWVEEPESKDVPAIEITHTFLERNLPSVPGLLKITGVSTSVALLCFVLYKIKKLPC

[3] = target: T2, Amine oxidase [flavin-containing] B (Rattus norvegicus, UniProt P19643); experiment: Competitive inhibition of rat MAOB expressed in Pichia pastoris
T2 sequence (P19643 whole entry): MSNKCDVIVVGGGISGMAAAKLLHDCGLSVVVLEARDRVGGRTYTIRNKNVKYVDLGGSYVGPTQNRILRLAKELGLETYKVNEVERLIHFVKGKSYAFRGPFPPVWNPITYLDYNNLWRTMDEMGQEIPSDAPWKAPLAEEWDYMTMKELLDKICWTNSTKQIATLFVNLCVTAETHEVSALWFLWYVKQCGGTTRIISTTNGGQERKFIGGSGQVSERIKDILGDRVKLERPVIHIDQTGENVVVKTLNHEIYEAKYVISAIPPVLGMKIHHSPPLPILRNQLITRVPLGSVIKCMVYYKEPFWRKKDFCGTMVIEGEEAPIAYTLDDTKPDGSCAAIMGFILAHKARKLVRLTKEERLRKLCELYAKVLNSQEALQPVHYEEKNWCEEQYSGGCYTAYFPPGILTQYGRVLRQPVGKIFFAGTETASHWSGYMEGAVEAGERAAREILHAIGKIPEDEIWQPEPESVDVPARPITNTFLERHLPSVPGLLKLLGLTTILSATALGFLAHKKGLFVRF

[4] = target: T3, Amine oxidase [flavin-containing] A (Homo sapiens, UniProt P21397); experiment: Inhibition of human MAOA expressed in Pichia pastoris at 100 uM
T3 sequence (P21397 whole entry): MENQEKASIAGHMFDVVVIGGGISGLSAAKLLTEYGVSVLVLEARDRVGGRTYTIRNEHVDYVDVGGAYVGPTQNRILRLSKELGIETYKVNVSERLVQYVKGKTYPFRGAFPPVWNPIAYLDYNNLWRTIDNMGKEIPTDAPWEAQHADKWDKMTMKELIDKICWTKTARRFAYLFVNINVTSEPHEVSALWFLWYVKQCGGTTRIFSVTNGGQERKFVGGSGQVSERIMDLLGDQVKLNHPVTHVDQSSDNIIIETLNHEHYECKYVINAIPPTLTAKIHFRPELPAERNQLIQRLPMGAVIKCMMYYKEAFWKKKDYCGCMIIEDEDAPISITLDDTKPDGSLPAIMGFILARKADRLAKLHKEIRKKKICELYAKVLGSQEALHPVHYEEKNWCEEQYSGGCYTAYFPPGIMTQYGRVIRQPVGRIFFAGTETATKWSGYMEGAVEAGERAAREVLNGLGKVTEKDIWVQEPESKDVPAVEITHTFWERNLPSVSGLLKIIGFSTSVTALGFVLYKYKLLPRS

[5] = target: T1, Amine oxidase [flavin-containing] A; experiment: Competitive inhibition of rat MAOA expressed in Pichia pastoris
[6] = target: T3, Amine oxidase [flavin-containing] A; experiment: Competitive inhibition of human MAOA expressed in Pichia pastoris
[7] = target: T4, Amine oxidase [flavin-containing] B (Homo sapiens, UniProt P27338); experiment: Competitive inhibition of human MAOB expressed in Pichia pastoris
T4 sequence (P27338 whole entry): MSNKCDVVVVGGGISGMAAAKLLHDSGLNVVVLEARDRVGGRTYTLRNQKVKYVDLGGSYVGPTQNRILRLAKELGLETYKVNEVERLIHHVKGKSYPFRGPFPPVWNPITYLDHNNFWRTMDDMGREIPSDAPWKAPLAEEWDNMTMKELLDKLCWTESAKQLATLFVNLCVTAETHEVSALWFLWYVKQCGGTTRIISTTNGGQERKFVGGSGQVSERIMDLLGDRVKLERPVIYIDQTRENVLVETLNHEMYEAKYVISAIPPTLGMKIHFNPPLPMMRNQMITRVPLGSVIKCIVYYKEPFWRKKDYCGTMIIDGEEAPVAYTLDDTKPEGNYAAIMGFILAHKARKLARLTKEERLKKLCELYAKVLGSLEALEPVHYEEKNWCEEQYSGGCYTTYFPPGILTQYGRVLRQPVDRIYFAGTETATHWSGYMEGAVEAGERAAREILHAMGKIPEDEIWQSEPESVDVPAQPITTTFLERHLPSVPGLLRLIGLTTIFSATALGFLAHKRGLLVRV

[8] = target: T3, Amine oxidase [flavin-containing] A; experiment: Uncompetitive inhibition of human MAOA expressed in Pichia pastoris
[9] = target: T1, Amine oxidase [flavin-containing] A; experiment: Uncompetitive inhibition of rat MAOA expressed in Pichia pastoris
[10] = target: T4, Amine oxidase [flavin-containing] B; experiment: Uncompetitive inhibition of human MAOB expressed in Pichia pastoris
[11] = target: T2, Amine oxidase [flavin-containing] B; experiment: Uncompetitive inhibition of rat MAOB expressed in Pichia pastoris

Row | SMILES | inhibition [1] | inhibition (INH) [2] | Ki [3] | inhibition (INH) [4] | Ki [5] | Ki [6] | Ki [7] | Ki [8] | Ki [9] | Ki [10] | Ki [11]
1 | CCc1ccc(CCOc2ccc(CC3SC(=O)NC3=O)cc2)nc1 (racemic) [PIOGLITAZONE] | inactive | Not Active | 2.1 µM | Not Active | – | – | – | – | – | – | –
2 | CN(CCOc1ccc(CC2SC(=O)NC2=O)cc1)c1ccccn1 (racemic) [ROSIGLITAZONE] | inactive | – | 5.8 µM | – | 32.6 µM | 27.6 µM | 4.2 µM | – | – | – | –
3 | Cc1c(C)c2c(c(C)c1O)CCC(C)(COc1ccc(CC3SC(=O)NC3=O)cc1)O2 (centres undefined) [TROGLITAZONE] | inactive | – | – | – | – | – | – | 10.5 µM | 4.8 µM | 9.5 µM | 10.9 µM
